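1) Cells in 96-well plates. 2) Compound, 48 h, 5 concentrations. 3) Linear interpolation between surrounding doses. 4) Unreached endpoint = highest concentration. Abbreviation: GI50, concentration required for 50% inhibition of growth.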 Active and inactive are the calls of the source. No stated cut-off is given here; in the data, active = GI50 up to about 1.1 µM and inactive = higher.
Legend:
Test in all cases: NCI-60 cell line screen, 48 h
SW-620 = tested on: SW-620
HCT-116 = tested on: HCT-116
MDA-N = tested on: MDA-N
BT-549 = tested on: BT-549
SK-OV-3 = tested on: SK-OV-3
DU-145 = tested on: DU-145
UACC-257 = tested on: UACC-257
SR = tested on: SR
TK-10 = tested on: TK-10
HOP-92 = tested on: HOP-92
NCI-H23 = tested on: NCI-H23
SK-MEL-5 = tested on: SK-MEL-5
SK-MEL-28 = tested on: SK-MEL-28
HCC 2998 = tested on: HCC 2998
IGROV-1 = tested on: IGROV-1
OVCAR-3 = tested on: OVCAR-3
NCI-H522 = tested on: NCI-H522
SNB-75 = tested on: SNB-75
U-251 = tested on: U-251
SK-MEL-2 = tested on: SK-MEL-2

Measured: GI50

COc1ccc(C(=O)/C=C2\C(=O)Nc3ccc(Br)cc32)cc1
inactive: SW-620 2.32 µM | HCT-116 4.05 µM | MDA-N 5.81 µM | BT-549 5.75 µM | SK-OV-3 15.6 µM | DU-145 7.48 µM | UACC-257 11.3 µM | SR 2.96 µM | TK-10 1.68 µM | HOP-92 3.24 µM | NCI-H23 4.27 µM | SK-MEL-5 18.4 µM | SK-MEL-28 10.5 µM | HCC 2998 4.26 µM | IGROV-1 2.84 µM | OVCAR-3 2.97 µM | NCI-H522 4.03 µM | SNB-75 14.3 µM | U-251 14.2 µM | SK-MEL-2 16.1 µM

CCOC(=O)/C=C(\C(=O)OCC)n1cc(C)c(=O)n(Cc2cn(COCCOC(C)=O)nn2)c1=O
inactive: SW-620 2.94 µM | HCT-116 20.5 µM | MDA-N 20.2 µM | BT-549 10.6 µM | SK-OV-3 71.8 µM | DU-145 34.9 µM | UACC-257 17.4 µM | SR 1.44 µM | TK-10 4.97 µM | HOP-92 1.61 µM | NCI-H23 14.7 µM | SK-MEL-5 20.9 µM | SK-MEL-28 10.5 µM | HCC 2998 22.9 µM | IGROV-1 16.7 µM | OVCAR-3 13.2 µM | SNB-75 21 µM | U-251 16.8 µM | SK-MEL-2 17.3 µM

OCC1OC(N2CCN(C3OC(CO)C(O)C(O)C3O)CC2)C(O)C(O)C1O (stereo not drawn)
inactive: SW-620 > 100 µM | HCT-116 > 100 µM | MDA-N > 100 µM | BT-549 > 100 µM | SK-OV-3 > 100 µM | DU-145 > 100 µM | UACC-257 > 100 µM | SR > 100 µM | TK-10 > 100 µM | HOP-92 > 100 µM | NCI-H23 > 100 µM | SK-MEL-5 > 100 µM | SK-MEL-28 > 100 µM | HCC 2998 > 100 µM | IGROV-1 > 100 µM | OVCAR-3 > 100 µM | NCI-H522 > 100 µM | SNB-75 > 100 µM | U-251 > 100 µM | SK-MEL-2 > 100 µM

COc1ccc(N2C(=O)/C(=C\c3cc(OC)c(OC)c(OC)c3)SC2c2ccccc2)cc1 (stereo not drawn)
inactive: SW-620 > 100 µM | HCT-116 71.9 µM | MDA-N 25.4 µM | BT-549 26.1 µM | SK-OV-3 81.7 µM | DU-145 > 100 µM | UACC-257 57.3 µM | SR 28.4 µM | TK-10 > 100 µM | HOP-92 > 100 µM | NCI-H23 33.1 µM | SK-MEL-5 23.7 µM | SK-MEL-28 > 100 µM | HCC 2998 > 100 µM | OVCAR-3 > 100 µM | NCI-H522 16.6 µM | U-251 56.5 µM | SK-MEL-2 > 100 µM

CC1=CN(c2ccccc2)S2=C1c1sc3c(c1N2c1ccc(Br)cc1)CCCC3 (stereo not drawn)
inactive: SW-620 > 100 µM | HCT-116 > 100 µM | MDA-N > 100 µM | BT-549 > 100 µM | SK-OV-3 > 100 µM | DU-145 > 100 µM | UACC-257 > 100 µM | SR > 100 µM | TK-10 > 100 µM | HOP-92 > 100 µM | NCI-H23 > 100 µM | SK-MEL-5 > 100 µM | SK-MEL-28 > 100 µM | HCC 2998 > 100 µM | IGROV-1 > 100 µM | OVCAR-3 > 100 µM | NCI-H522 > 100 µM | U-251 > 100 µM | SK-MEL-2 > 100 µM

OCCCCn1cc(Cn2ncc3c(NCc4ccccc4)ncnc32)nn1
inactive: SW-620 > 100 µM | HCT-116 > 100 µM | MDA-N 42.8 µM | BT-549 > 100 µM | SK-OV-3 > 100 µM | DU-145 > 100 µM | UACC-257 > 100 µM | SR 15.9 µM | TK-10 > 100 µM | HOP-92 > 100 µM | NCI-H23 > 100 µM | SK-MEL-5 > 100 µM | SK-MEL-28 > 100 µM | HCC 2998 > 100 µM | IGROV-1 > 100 µM | OVCAR-3 > 100 µM | NCI-H522 > 100 µM | U-251 > 100 µM | SK-MEL-2 > 100 µM

OC12C3C4CC5C(C4[C@@H]1Br)C2[C@@](O)(c1c(F)c(F)c(F)c(F)c1F)C53 (stereo partly drawn)
inactive: SW-620 43.3 µM | HCT-116 30.8 µM | MDA-N 34.9 µM | BT-549 39.4 µM | DU-145 41.8 µM | UACC-257 24.8 µM | SR 21.3 µM | TK-10 47.8 µM | HOP-92 24 µM | NCI-H23 31.7 µM | SK-MEL-5 26.2 µM | SK-MEL-28 39.8 µM | HCC 2998 36.5 µM | IGROV-1 35.6 µM | OVCAR-3 23.3 µM | NCI-H522 29.6 µM | U-251 38 µM | SK-MEL-2 24.5 µM
